In ChEMBL document CHEMBL1140220, “Synthetic and crystallographic studies of a new inhibitor series targeting Bacillus anthracis dihydrofolate reductase” (J Med Chem, 2008) one finds IC50 data, which are given here for two molecules.

In this experiment the target is T1, Dihydrofolate reductase (Homo sapiens, UniProt P00374).
T1 sequence (P00374 whole entry): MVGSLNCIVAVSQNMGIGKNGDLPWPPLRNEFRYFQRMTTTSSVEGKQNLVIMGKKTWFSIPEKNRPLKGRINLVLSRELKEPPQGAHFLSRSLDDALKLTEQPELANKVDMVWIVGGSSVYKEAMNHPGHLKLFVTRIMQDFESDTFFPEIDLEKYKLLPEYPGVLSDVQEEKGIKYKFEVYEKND

In turn, `CCc1nc(N)nc(N)c1C#CCc1ccccc1` displayed an IC50 of 360 nM.

For `CCc1nc(N)nc(N)c1C#CCc1cccc(OC)c1OC`, half-maximal inhibition (IC50) was put at 130 nM.

The term IC50 denotes the concentration at which inhibition is half-maximal. Read a high IC50 as weaker potency.
